Assay results: patent publication US20260000675A1, “COMBINATION THERAPY FOR PREVENTING OR TREATING OBESITY” (LG CHEM, LTD., priority 2022, published 2026)

What was measured:
Type in all cases: in vivo
[1] = tested on: diet-induced obesity (DIO) mouse model; assay: Comparative example: weight loss on co-administration of semaglutide with test compound or setmelanotide in DIO mice; conditions: repeated co-administration with semaglutide for 18 days, test compound 15 mg/kg/day, comparative compound 3 mg/kg/day, FIG. 4
Excerpt: In a diet-induced obesity (DIO) mouse model where obesity was induced using a high-fat diet, the weight loss effect was compared after 18 days of repeated co-administration of semaglutide (a GLP-1 receptor agonist, trade name: Ozempic) with either the test compound, which is an MC4R agonist, or setmelanotide (RM-493), which is a peptide MC4R agonist (hereinafter referred to as ‘comparative compound’). Dosages of the test compound and the comparative compound were selected based on the efficacious doses observed in single administration studies (test compound: 15 mg/kg/day, comparative compound: 3 mg/kg/day). Body weight measurements were taken once daily prior to the administration of the test substances, and changes in body weight after 18 days relative to weight (D1) prior to the administration of the test substances were calculated and presented in FIG. 4.

[2] = tested on: diet-induced obesity (DIO) mouse model; assay: Combination study with PF-06882961 (danuglipron) in DIO mice: food intake, body weight, body fat mass, OGTT
Experimental: In a diet-induced obesity (DIO) mouse model where obesity was induced using a high-fat diet, changes in food intake and body weight were measured over 4 weeks of repeated co-administration of PF-06882961 (danuglipron), which is an oral GLP-1 receptor agonist, and the test compound, which is an MC4R agonist. Food intake and body weight were measured once daily prior to the administration of the test substances, and changes in body weight relative to weight (D1) prior to the administration of the test substances were calculated, with the results presented in FIGS. 5 and 6, respectively. Further, on the 28th day after the administration of the test substances, body fat mass and an oral glucose tolerance test (OGTT) were measured, with the results shown in FIGS. 7 and 8, respectively. Body fat mass was measured using a ^1H-Mini-spec system (LF-9011, Bruker Optics GmbH, Germany) and blood glucose was measured using GM9 (Analox Instruments Ltd., UK) with blood samples collected from the tail vein.

[3] = tested on: diet-induced obesity (DIO) mouse model; assay: Reduction in liver/fat weight on repeated co-administration with semaglutide in DIO mice; conditions: after 3 weeks, FIG. 3
Experimental: In a diet-induced obesity (DIO) mouse model where obesity was induced using a high-fat diet, the effect of reduction in liver and fat weights was measured after 3 weeks of repeated co-administration of semaglutide (a GLP-1 receptor agonist, trade name: Ozempic) and the test compound, which is an MC4R agonist, with the results shown in FIG. 3.

[4] = tested on: diet-induced obesity (DIO) mouse model; assay: Weight loss effect on repeated co-administration with semaglutide in DIO mice; conditions: repeated co-administration with semaglutide over 18 days, versus single administration, FIGS. 1 and 2
Experimental: In a diet-induced obesity (DIO) mouse model where obesity was induced using a high-fat diet, the weight loss effect was measured over 18 days following repeated co-administration of semaglutide (a GLP-1 receptor agonist, trade name: Ozempic) and an MC4R agonist, N-((3S,5S)-1-((3S,4R)-1-(tert-butyl)-4-(4-chlorophenyl)pyrrolidine-3-carbonyl)-5-(morpholin-4-carbonyl)pyrrolidin-3-yl)-N-((1 S,4R)-4-methylcyclohexyl)isobutyramide hydrochloride obtained in Preparation Example (hereinafter referred to as ‘test compound’). Body weight measurements were taken once daily prior to the administration of the test substances, and changes in body weight compared to weight (D1) prior to the administration of the test substances were calculated and presented in FIGS. 1 and 2. By comparing the weight loss effect in the co-administration group to that in the single administration group, the effect of co-administration of a GLP-1 receptor agonist and the test compound was evaluated.

CC(C)C(=O)N([C@H]1C[C@@H](C(=O)N2CCOCC2)N(C(=O)[C@@H]2CN(C(C)(C)C)C[C@H]2c2ccc(Cl)cc2)C1)[C@H]1CC[C@@H](C)CC1.Cl [test compound, N-((3S,5S)-1-((3S,4R)-1-(tert-butyl)-4-(4-chlorophenyl)pyrrolidine-3-carbonyl)-5-(morpholine-4-carbonyl)pyrrolidin-3-yl)-N-((1s,4R)-4-methylcyclohexyl)isobutyramide hydrochloride]
weight loss effect (change in body weight after 18 days relative to D1) [1]: significant synergistic weight loss effect
reduction in body fat mass ([2]; co-administration with PF-06882961, day 28, 1H-Mini-spec, versus single administration, FIG. 7): much greater reduction in body fat mass
improvement in glucose tolerance (OGTT) ([2]; co-administration with PF-06882961, day 28, oral glucose tolerance test, versus single administration, FIG. 8): improvement in glucose tolerance
weight loss effect (change in body weight relative to D1) ([2]; repeated co-administration with PF-06882961 over 4 weeks (28 days), versus single administrations, FIG. 6): synergistic weight loss effect
reduction in food intake ([2]; repeated co-administration with PF-06882961 over 28 days, versus single administrations, FIG. 5): significant reduction in food intake
effect of reduction in fat weight [3]: synergistic effect in reducing liver and fat weights
effect of reduction in liver weight [3]: synergistic effect in reducing liver and fat weights
weight loss effect (change in body weight relative to D1) [4]: synergistic weight loss effect
